Laboratory results reported in the supplement of paper PMC10307832.

How the values were obtained:
Assay in all cases: relative viability (nuclei count vs DMSO), 5 days (fraction); higher = more cells survive
[1] = system: NCI-H322M
Procedure, shortened: (§1)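 Values are medians from duplicate plates. Each reflects relative viability, defined as the nuclei count of treated wells over that of vehicle wells. Lung cancer cell lines in 1536-well plates were pin-tool dosed one day after seeding with one drug alone or with a fixed anchor-drug dose plus five library-drug doses (not always all listed) in √10 steps, then fixed, stained and imaged at 4× after 5 days.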

[2] = system: HOP-62
Procedure, shortened: as §1

[3] = system: HCC-44
Procedure, shortened: as §1

[4] = system: NCI-H520
Procedure, shortened: as §1

[5] = system: NCI-H1651
Procedure, shortened: as §1

[6] = system: NCI-H23
Procedure, shortened: as §1

[7] = system: LCLC-103H
Procedure, shortened: as §1

[8] = system: NCI-H2085
Procedure, shortened: as §1

[9] = system: NCI-H838
Procedure, shortened: as §1

[10] = system: ABC-1
Procedure, shortened: as §1

[11] = system: NCI-H1395
Procedure, shortened: as §1

[12] = system: NCI-H1666
Procedure, shortened: as §1

[13] = system: NCI-H647
Procedure, shortened: as §1

[14] = system: NCI-H1993
Procedure, shortened: as §1

[15] = system: NCI-H661
Procedure, shortened: as §1

[16] = system: CAL-12T
Procedure, shortened: as §1

[17] = system: COR-L23
Procedure, shortened: as §1

[18] = system: 201T
Procedure, shortened: as §1

[19] = system: NCI-H2347
Procedure, shortened: as §1

[20] = system: NCI-H1355
Procedure, shortened: as §1

[21] = system: NCI-H2170
Procedure, shortened: as §1

[22] = system: NCI-H2228
Procedure, shortened: as §1

[23] = system: LC-2-ad
Procedure, shortened: as §1

Cc1cnc(-c2cnc(NCCNc3ccc(C#N)cn3)nc2-c2ccc(Cl)cc2Cl)[nH]1 + Cc1cc(Nc2cc(N3CCN(C)CC3)nc(Sc3ccc(NC(=O)C4CC4)cc3)n2)n[nH]1 [Tozasertib] (partner 0.1 µM)
relative viability ([1]; first compound 0.08 µM): 0.51 | relative viability ([1]; first compound 0.253 µM): 0.464 | relative viability ([1]; first compound 0.8 µM): 0.438 | relative viability ([1]; first compound 2.53 µM): 0.466 | relative viability ([2]; first compound 0.08 µM): 0.321 | relative viability ([2]; first compound 0.253 µM): 0.353 | relative viability ([2]; first compound 0.8 µM): 0.36 | relative viability ([2]; first compound 2.53 µM): 0.288 | relative viability ([3]; first compound 0.08 µM): 1.04 | relative viability ([3]; first compound 0.253 µM): 0.746 | relative viability ([3]; first compound 0.8 µM): 0.676 | relative viability ([3]; first compound 2.53 µM): 0.781 | relative viability ([4]; first compound 0.08 µM): 0.517 | relative viability ([4]; first compound 0.253 µM): 0.444 | relative viability ([4]; first compound 0.8 µM): 0.397 | relative viability ([4]; first compound 2.53 µM): 0.499 | relative viability ([5]; first compound 0.08 µM): 0.7 | relative viability ([5]; first compound 0.253 µM): 0.648 | relative viability ([5]; first compound 0.8 µM): 0.682 | relative viability ([5]; first compound 2.53 µM): 0.565 | relative viability ([6]; first compound 0.08 µM): 0.383 | relative viability ([6]; first compound 0.253 µM): 0.26 | relative viability ([6]; first compound 0.8 µM): 0.298 | relative viability ([6]; first compound 2.53 µM): 0.259 | relative viability ([7]; first compound 0.08 µM): 0.503 | relative viability ([7]; first compound 0.253 µM): 0.417 | relative viability ([7]; first compound 0.8 µM): 0.429 | relative viability ([7]; first compound 2.53 µM): 0.426 | relative viability ([8]; first compound 0.08 µM): 0.886 | relative viability ([8]; first compound 0.253 µM): 0.684 | relative viability ([8]; first compound 0.8 µM): 0.56 | relative viability ([8]; first compound 2.53 µM): 0.469 | relative viability ([9]; first compound 0.08 µM): 0.293 | relative viability ([9]; first compound 0.253 µM): 0.235 | relative viability ([9]; first compound 0.8 µM): 0.281 | relative viability ([9]; first compound 2.53 µM): 0.272 | relative viability ([10]; first compound 0.08 µM): 0.213 | relative viability ([10]; first compound 0.253 µM): 0.158 | relative viability ([10]; first compound 0.8 µM): 0.22 | relative viability ([10]; first compound 2.53 µM): 0.221 | relative viability ([11]; first compound 0.08 µM): 0.778 | relative viability ([11]; first compound 0.253 µM): 0.856 | relative viability ([11]; first compound 0.8 µM): 0.872 | relative viability ([11]; first compound 2.53 µM): 0.756 | relative viability ([12]; first compound 0.08 µM): 0.63 | relative viability ([12]; first compound 0.253 µM): 0.593 | relative viability ([12]; first compound 0.8 µM): 0.623 | relative viability ([12]; first compound 2.53 µM): 0.626 | relative viability ([13]; first compound 0.08 µM): 0.306 | relative viability ([13]; first compound 0.253 µM): 0.163 | relative viability ([13]; first compound 0.8 µM): 0.263 | relative viability ([13]; first compound 2.53 µM): 0.172 | relative viability ([14]; first compound 0.08 µM): 0.583 | relative viability ([14]; first compound 0.253 µM): 0.558 | relative viability ([14]; first compound 0.8 µM): 0.573 | relative viability ([14]; first compound 2.53 µM): 0.538 | relative viability ([15]; first compound 0.08 µM): 0.361 | relative viability ([15]; first compound 0.253 µM): 0.378 | relative viability ([15]; first compound 0.8 µM): 0.363 | relative viability ([15]; first compound 2.53 µM): 0.341 | relative viability ([16]; first compound 0.08 µM): 0.346 | relative viability ([16]; first compound 0.253 µM): 0.302 | relative viability ([16]; first compound 0.8 µM): 0.234 | relative viability ([16]; first compound 2.53 µM): 0.211 | relative viability ([17]; first compound 0.08 µM): 0.205 | relative viability ([17]; first compound 0.253 µM): 0.181 | relative viability ([17]; first compound 0.8 µM): 0.164 | relative viability ([17]; first compound 2.53 µM): 0.109 | relative viability ([18]; first compound 0.08 µM): 0.93 | relative viability ([18]; first compound 0.8 µM): 0.904 | relative viability ([18]; first compound 2.53 µM): 0.884 | relative viability ([19]; first compound 0.08 µM): 0.59 | relative viability ([19]; first compound 0.253 µM): 0.466 | relative viability ([19]; first compound 0.8 µM): 0.411 | relative viability ([19]; first compound 2.53 µM): 0.481 | relative viability ([20]; first compound 0.08 µM): 0.662 | relative viability ([20]; first compound 0.253 µM): 0.474 | relative viability ([20]; first compound 0.8 µM): 0.56 | relative viability ([20]; first compound 2.53 µM): 0.374 | relative viability ([21]; first compound 0.08 µM): 0.73 | relative viability ([21]; first compound 0.253 µM): 0.566 | relative viability ([21]; first compound 0.8 µM): 0.713 | relative viability ([21]; first compound 2.53 µM): 0.699 | relative viability ([22]; first compound 0.08 µM): 0.283 | relative viability ([22]; first compound 0.253 µM): 0.267 | relative viability ([22]; first compound 0.8 µM): 0.297 | relative viability ([22]; first compound 2.53 µM): 0.268 | relative viability ([23]; first compound 0.08 µM): 0.439 | relative viability ([23]; first compound 0.253 µM): 0.392 | relative viability ([23]; first compound 2.53 µM): 0.477
